From patent US4833257A, “Compositions of matter and methods of using same” (Arizona Board of Regents, priority 1986, dated 1989)
≈ marks a conversion by molar mass, not a printed value. Where two headings read alike, the source gives them in different places.

Assays:
[1] = tested on: P388 lymphocytic leukemia (PS cell line); experiment: P388 lymphocytic leukemia (PS) cell line growth inhibition; assay type: cell-based, murine; details: Mus musculus
Text: (§1) The isolation and purification methods chosen can be monitored at each step by performing in-vitro and/or in-vivo antitumor tests as described by R. I. Geran, N. H. Greenberg, M. M. MacDonald, A. M. Schumacher and B. S. Abbot in Cancer Chemother. Rep. Part 3, Vol 3: 1-103 (1972); and by Schmidt, J. M.; Pettit, G. R. in Experientia 1978, 34: 659-660. Such tests include the determination of the concentration of active material required to inhibit the growth of tumor cells in culture, (e.g. the concentration required to inhibit growth by 50 percent or the E.D.50) and of the dose of active material required to prolong the life of mice bearing transplanted tumors. The chemical structures of the bryostatins of the present invention are shown below and the physical characteristics are reported in the pertinent examples. The structures are: [drawing 2]

[2] = tested on: P388 lymphocytic leukemia and other NCI test systems; experiment: cell growth inhibitory and antineoplastic activity against P388 lymphocytic leukemia and other NCI test systems; set-up: species or system murine
Text: as §1

[3] = tested on: P388 lymphocytic leukemia (PS system); experiment: in vivo antitumor test in mice bearing P388 lymphocytic leukemia (PS system), life extension / T/C
Text: as §1

[4] = P388 lymphocytic leukemia cell line, read-out: PS cell line growth inhibition ED50

Structure (SMILES) | IC50 ([1]; P388 lymphocytic leukemia, growth inhibition, read-out: PS ED50) | cell growth inhibitory and antineoplastic activity [2] | life extension ([3]; at 80 μg/kg) | IC50 [1, 4] | in vivo growth inhibition ([3]; at 92.5 μg/kg) | life extension ([3]; at 30-50 μg/kg)
CCCC(=O)O[C@H]1/C(=C/C(=O)OC)C[C@H]2C[C@H]([C@@H](C)O)OC(=O)C[C@H](O)C[C@@H]3C[C@H](OC(C)=O)C(C)(C)[C@](O)(C[C@@H]4C/C(=C/C(=O)OC)C[C@H](/C=C/C(C)(C)[C@]1(O)O2)O4)O3 [Bryostatin 9] | 1.2 ng/mL (≈ 1.41 nM) | substantial cell growth inhibitory and antineoplastic activity | 40% | – | – | –
COC(=O)/C=C1/C[C@H]2C[C@]3(O)O[C@H](C[C@@H](O)CC(=O)O[C@@H]([C@@H](C)O)C[C@@H]4C/C(=C\C(=O)OC)C[C@@](O)(O4)C(C)(C)/C=C/[C@@H](C1)O2)C[C@H](OC(C)=O)C3(C)C [Bryostatin 11] | – | substantial cell growth inhibitory and antineoplastic activity | – | 0.018 ng/mL (≈ 0.0235 nM) | 64% | –
CCC/C=C/C=C/C(=O)O[C@H]1/C(=C/C(=O)OC)C[C@H]2C[C@H]([C@@H](C)O)OC(=O)C[C@H](O)C[C@@H]3C[C@H](OC(=O)CCC)C(C)(C)[C@](O)(C[C@@H]4C/C(=C/C(=O)OC)C[C@H](/C=C/C(C)(C)[C@]1(O)O2)O4)O3 [Bryostatin 12] | – | substantial cell growth inhibitory and antineoplastic activity | – | 14 ng/mL (≈ 15 nM) | – | 47-68%
CCCC(=O)O[C@H]1C[C@H]2C[C@@H](O)CC(=O)O[C@@H]([C@@H](C)O)C[C@@H]3C/C(=C\C(=O)OC)C[C@@](O)(O3)C(C)(C)/C=C/[C@H]3C/C(=C\C(=O)OC)C[C@@H](C[C@](O)(O2)C1(C)C)O3 [Bryostatin 13] | – | substantial cell growth inhibitory and antineoplastic activity | – | 5.4 ng/mL (≈ 6.79 nM) | – | –
